Drawing on patent US8816090B2, “Benzisoxazole derivatives” (Pfizer Inc., priority 2005, dated 2014), this text covers melting point, Emax and EC50 for eight molecules.

The melting point is the temperature of the solid-liquid transition. As a reminder, the Emax is the size of the effect at its maximum, as opposed to the concentration needed. By EC50 is commonly meant the midpoint of the concentration-response curve.

The target in one data set is T1, Human 5-HT4(d) (Homo sapiens, UniProt Q13639).
T1 construct: expressed in transfected cells
In words: Agonist-induced cAMP elevation in human 5-HT4(d) transfected HEK293 cells. The class given is cell-based. To be noted: for Emax: HEK293, cAMP production normalized to the amount produced by 1,000 nM serotonin; for EC50: cAMP elevation (HTRF), human 5-HT4(d) transfected HEK293 cells. The procedure: Human 5-HT4(d) transfected HEK293 cells were established in-house. The cells were grown at 37° C. and 5% CO2 in DMEM supplemented with 10% FCS, 20 mM HEPES (pH 7.4), 200 μg/ml hygromycin B (Gibco), 100 units/ml penicillin and 100 μg/ml streptomycin.
The cells were grown to 60-80% confluence. On the previous day before treatment with compounds dialyzed FCS (Gibco) was substituted for normal and the cells were incubated overnight.
Compounds were prepared in 96-well plates (12.5 μl/well). The cells were harvested with PBS/1 mM EDTA, centrifuged and washed with PBS. At the beginning of the assay, cell pellet was resuspended in DMEM supplemented with 20 mM HEPES, 10 μM pargyline (Sigma) and 1 mM 3-isobutyl-1-methylxanthine (Sigma) at the concentration of 1.6×10^5 cells/ml and left for 15 min at room temperature. The reaction was initiated by addition of the cells into plates (12.5 μl/well). After incubation for 15 min at room temperature, 1% Triton X-100 was added to stop the reaction (25 μl/well) and the plates were left for 30 minutes at room temperature. Homogenous time-resolved fluorescence-based cAMP (Schering) detection was made according to the manufacturer's instruction. ARVOsx multilabel counter (Wallac) was used to measure HTRF (excitation 320 nm, emission 665 nm/620 nm, delay time 50 μs, window time 400 μs).
Data was analyzed based on the ratio of fluorescence intensity of each well at 620 nm and 665 nm followed by cAMP quantification using cAMP standard curve. Enhancement of cAMP production elicited by each compound was normalized to the amount of cAMP produced by 1,000 nM serotonin (Sigma).
In general terms: cAMP levels reflect the balance of adenylyl cyclase and phosphodiesterase activity.

T1 sequence (Q13639 1-360 isoform Q13639-3): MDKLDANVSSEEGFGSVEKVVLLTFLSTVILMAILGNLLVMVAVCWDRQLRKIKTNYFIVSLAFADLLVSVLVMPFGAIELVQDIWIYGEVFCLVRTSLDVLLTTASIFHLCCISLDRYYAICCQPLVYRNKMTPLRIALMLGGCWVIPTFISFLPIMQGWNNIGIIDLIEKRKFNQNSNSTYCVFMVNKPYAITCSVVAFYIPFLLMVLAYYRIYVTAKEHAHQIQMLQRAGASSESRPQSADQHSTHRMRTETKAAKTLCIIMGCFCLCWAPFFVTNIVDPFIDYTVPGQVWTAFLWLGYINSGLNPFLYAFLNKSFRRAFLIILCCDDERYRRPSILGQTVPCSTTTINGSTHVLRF

On to `O=C(O)[C@H]1CC[C@H](CN2CCC(COc3noc4cccc(OCC(F)(F)F)c34)CC2)CC1` [Example 4, trans-4-{[4-({[4-(2,2,2-Trifluoroethoxy)-1,2-benzisoxazol-3-yl]oxy}methyl)-piperidin-1-yl]methyl}cyclohexanecarboxylic acid], for which the melting point worked out at 158 °C. At Human 5-HT4(d), this molecule displayed a maximal effect (Emax) of 77% and an EC50 of 1.2 nM.
Molecule `CC(C)COc1cccc2onc(NCC3CCN(CC4(C(=O)O)CCOCC4)CC3)c12` [Example 16, 4-[(4-{[(4-Isobutoxy-1,2-benzisoxazol-3-yl)amino]methyl}piperidin-1-yl)methyl]tetrahydro-2H-pyran-4-carboxylic acid] displayed a melting point of 178.2 °C. At Human 5-HT4(d), this molecule displayed an Emax of 55% and an EC50 of 1.6 nM.
For `O=C(O)C1(CN2CCC(COc3noc4cccc(O[C@H]5CC[C@@H](O)CC5)c34)CC2)CCCC1` [Example 45, 1-({4-[({4-[(cis-4-Hydroxycyclohexyl)oxy]-1,2-benzisoxazol-3-yl}oxy)methyl]piperidin-1-yl}methyl)-cyclopentanecarboxylic acid] the same measures were 189.6 °C, 42% and 3.8 nM.
Molecule `CC(C)COc1cccc2onc(OCC3CCN(CC4(C(=O)O)CCC4)CC3)c12` [Example 12, 1-[(4-{[(4-Isobutoxy-1,2-benzisoxazol-3-yl)oxy]methyl}piperidin-1-yl)methyl]cyclobutanecarboxylic acid] gave a melting point of 168.8 °C. At Human 5-HT4(d), the Emax worked out at 45% and a half-maximal effect (EC50) was put at 2.3 nM.
For `O=C(O)C1(CN2CCC(COc3noc4cccc(OC5CCCC5)c34)CC2)CCOCC1` [Example 24, 4-{[4-({[4-(Cyclopentyloxy)-1,2-benzisoxazol-3-yl]oxy}methyl)piperidin-1-yl]methyl}tetrahydro-2H-pyran-4-carboxylic acid] the same measures were 177.7 °C, 52% and 1.4 nM.
Molecule `CC(C)COc1cccc2onc(OCC3CCN(CC4(C(=O)O)CCCC4)CC3)c12` [Example 9, 1-[(4-{[(4-Isobutoxy-1,2-benzisoxazol-3-yl)oxy]methyl}piperidin-1-yl)methyl]cyclopentane-carboxylic acid] displayed a melting point of 156.3 °C. At Human 5-HT4(d), the Emax was determined as 36% and the EC50 was found to be 2.9 nM.
For `CC(C)(CN1CCC(COc2noc3cccc(OCC4CCC4)c23)CC1)C(=O)O` [Example 19, 3-[4-({[4-(Cyclobutylmethoxy)-1,2-benzisoxazol-3-yl]oxy}methyl)piperidin-1-yl]-2,2-dimethyl-propanoic acid] the same measures were 139.8 °C, 45% and 0.16 nM.
In the same order, the values of `OC1(COc2cccc3onc(OCC4CCN(CC5(O)CCOCC5)CC4)c23)CCCC1` [Example 31, 4-({4-[{(4-[(1-Hydroxycyclopentyl)methoxy]-1,2-benzisoxazol-3-yl}oxy)methyl]piperidin-1-yl}-methyl)tetrahydro-2H-pyran-4-ol] are 136.5 °C, 31% and 27 nM.
